According to US9925263B2, “Liquid pharmaceutical formulations for injection comprising procaine and uses thereof” (EAGLE BIOLOGICS, INC., priority 2013, dated 2018):

Assays:
biosimilar AVASTIN® = assay: Viscosity of aqueous solutions of biosimilar AVASTIN® with viscosity-lowering agents; assay type: physicochemical; conditions: 200 ± 5 mg/mL mAb, pH 7.0, 25° C.; [Salt] 0.25 M of anion; C & P viscometer
biosimilar ERBITUX® = assay: Viscosity of aqueous solutions of biosimilar ERBITUX® with viscosity-lowering agents; conditions: pH 7.0; for Viscosity / Fold Reduction: 0.25M agent; for Fold Reduction: vs phosphate buffer
branded ERBITUX® = assay: Viscosity of aqueous solutions of branded ERBITUX®; assay type: physicochemical; conditions: 224 ± 4 mg/mL mAb; phosphate buffer or 0.25M BSAA; 25° C., pH 7.0
Description: (§1) (unless otherwise indicated).

TYSABRI® = assay: Viscosity of aqueous solutions of TYSABRI® with viscosity-lowering agents; assay type: physicochemical; conditions: 230 ± 2 mg/mL TYSABRI; 0.25M agent; 25° C., pH 7.0
Procedure: All viscosities of well-mixed aqueous mAb solutions were measured using either a mVROC microfluidic viscometer (RheoSense) or a DV2T cone and plate viscometer (Brookfield; “C & P”) after a 5 minute equilibration at 25° C. […] The mVROC viscometer was equipped with an “A” or “B” chip, each manufactured with a 50 micron channel. Typically, 0.10 mL of protein solution was back-loaded into a gastight microlab instrument syringe (Hamilton; 100 μL), affixed to the chip, and measured at multiple flow rates, approximately 20%, 40%, and 60% of the maximum pressure for each chip. […] An average absolute viscosity and standard deviation was then calculated from at least these three measurements. The C & P viscometer was equipped with a CPE40 or CPE52 spindle (cone angle of 0.8° and 3.0°, respectively) and 0.50 mL samples were measured at multiple shear rates between 2 and 400 s^−1. Specifically, samples were measured for 30 seconds each at 22.58, 24.38, 26.25, 28.13, 30, 31.88, 45, 67.5, 90, 112.5, 135, 157.5, 180, 202.5, 247, 270, 292.5, 315, 337.5, 360, 382, 400 s^−1, starting at a shear rate that gave at least 10% torque, and continuing until instrument torque reached 100%. An extrapolated zero-shear viscosity was then determined from a plot of dynamic viscosity versus shear rate for the samples measured on a DV2T cone and plate viscometer. The extrapolated zero-shear viscosities reported are the average and standard deviation of at least three measurements.
(§2) Viscosities were measured using a RheoSense mVROC microfluidic viscometer equipped with an “A” or “B” chip.
Subsequently, the aqueous drug product was purified, buffer exchanged, concentrated, dried, reconstituted, and analyzed as described in the same manner. Viscosities reported were measured on a RheoSense mVROC microfluidic viscometer.

HERCEPTIN® = assay: Viscosity of aqueous solutions of HERCEPTIN® with viscosity-lowering agents; assay type: physicochemical; conditions: 0.25M salt, 25° C., pH 7.0
Procedure: All viscosities of well-mixed aqueous mAb solutions were measured using either a mVROC microfluidic viscometer (RheoSense) or a DV2T cone and plate viscometer (Brookfield; “C & P”) after a 5 minute equilibration at 25° C. (unless otherwise indicated). The mVROC viscometer was equipped with an “A” or “B” chip, each manufactured with a 50 micron channel. Typically, 0.10 mL of protein solution was back-loaded into a gastight microlab instrument syringe (Hamilton; 100 μL), affixed to the chip, and measured at multiple flow rates, approximately 20%, 40%, and 60% of the maximum pressure for each chip. […] An average absolute viscosity and standard deviation was then calculated from at least these three measurements. The C & P viscometer was equipped with a CPE40 or CPE52 spindle (cone angle of 0.8° and 3.0°, respectively) and 0.50 mL samples were measured at multiple shear rates between 2 and 400 s^−1. Specifically, samples were measured for 30 seconds each at 22.58, 24.38, 26.25, 28.13, 30, 31.88, 45, 67.5, 90, 112.5, 135, 157.5, 180, 202.5, 247, 270, 292.5, 315, 337.5, 360, 382, 400 s^−1, starting at a shear rate that gave at least 10% torque, and continuing until instrument torque reached 100%. An extrapolated zero-shear viscosity was then determined from a plot of dynamic viscosity versus shear rate for the samples measured on a DV2T cone and plate viscometer. The extrapolated zero-shear viscosities reported are the average and standard deviation of at least three measurements.
as §2
Viscosities reported were measured on a RheoSense mVROC microfluidic viscometer.

REMICADE® = assay: Viscosity of aqueous solutions of […]® with viscosity-lowering agents; assay type: physicochemical; conditions: 0.25M agent, 25° C., pH 7.0
Procedure: as §1
An extrapolated zero-shear viscosity was determined from a plot of absolute viscosity versus shear rate.
Following reconstitution, the viscosity of each solution was measured using the microfluidic viscometer as described in previous examples. The solutions were then back-loaded into 1 mL BD insulin syringes with 27, 29, or 31 gauge fixed needles. The force required to extrude the concentrated […]® solutions was then measured using an Instron at a rate of displacement equivalent to a fluid flow rate of 3 mL/min. The expelled solution was collected from the syringe and analyzed by size-exclusion chromatography.

N=C(N)NCCC[C@H](N)C(=O)O.O=S(=O)(O)c1ccccc1 [BSAA, benzenesulfonic acid arginine]
Viscosity (biosimilar AVASTIN®): 75.3 ± 0.4 cP | Viscosity (biosimilar ERBITUX®; 222 ± 5 mg/mL mAb, 25° C.): 53.4 ± 5.5 cP | Biosimilar ERBITUX ® viscosity (biosimilar ERBITUX®; 224 ± 4 mg/mL mAb, phosphate buffer or 0.25M BSAA, 25° C.): 53.4 ± 5.5 cP | Viscosity (biosimilar ERBITUX®; 225 ± 5 mg/mL mAb, 20° C.): 85.2 ± 0.6 cP | Viscosity (biosimilar ERBITUX®; 225 ± 5 mg/mL mAb, 25° C.): 61.3 ± 0.9 cP | Viscosity (biosimilar ERBITUX®; 225 ± 5 mg/mL mAb, 30° C.): 50.5 ± 1.9 cP | Fold Reduction (biosimilar ERBITUX®; 222 ± 5 mg/mL mAb, 25° C.): ~21 fold | Fold Reduction (biosimilar ERBITUX®; 222 ± 5 mg/mL mAb, 25° C., listed as BSA Arginine): 21.2 fold | Branded ERBITUX ® viscosity (branded ERBITUX®): 44.1 ± 0.5 cP | Viscosity (TYSABRI®): 34.9 ± 1.3 cP | Viscosity (HERCEPTIN®; 254 ± 3 mg/mL HERCEPTIN): 75.4 ± 5.0 cP | Viscosity (HERCEPTIN®; 270 ± 6 mg/mL HERCEPTIN): 115 ± 6 cP | Viscosity (REMICADE®; 166 ± 4 mg/mL REMICADE): 26.7 ± 1.2 cP | Viscosity (REMICADE®; 222 ± 6 mg/mL REMICADE): 92.3 ± 1.4 cP
